Measurements from patent US20260199309A1, “COMPOUNDS FOR THE TREATMENT OF CENTRA NERVOUS SYSTEM DISORDERS” (Autifony Therapeutics Limited, priority 2022, published 2026).

Assays:
CYP1A2 = CYP1A2 (Homo sapiens, UniProt P05177); test: CYP450 inhibition, pro-fluorescent probe substrate (1A2/ER)
CYP2C19 = CYP2C19 (Homo sapiens, UniProt P33261); test: CYP450 inhibition, pro-fluorescent probe substrate (2C19/BMC); assay type: in vitro ADME; details: recombinant human CYP450, substrate BMC; top concentration 5.00E-05
CYP2C19, sequence (P33261 whole entry): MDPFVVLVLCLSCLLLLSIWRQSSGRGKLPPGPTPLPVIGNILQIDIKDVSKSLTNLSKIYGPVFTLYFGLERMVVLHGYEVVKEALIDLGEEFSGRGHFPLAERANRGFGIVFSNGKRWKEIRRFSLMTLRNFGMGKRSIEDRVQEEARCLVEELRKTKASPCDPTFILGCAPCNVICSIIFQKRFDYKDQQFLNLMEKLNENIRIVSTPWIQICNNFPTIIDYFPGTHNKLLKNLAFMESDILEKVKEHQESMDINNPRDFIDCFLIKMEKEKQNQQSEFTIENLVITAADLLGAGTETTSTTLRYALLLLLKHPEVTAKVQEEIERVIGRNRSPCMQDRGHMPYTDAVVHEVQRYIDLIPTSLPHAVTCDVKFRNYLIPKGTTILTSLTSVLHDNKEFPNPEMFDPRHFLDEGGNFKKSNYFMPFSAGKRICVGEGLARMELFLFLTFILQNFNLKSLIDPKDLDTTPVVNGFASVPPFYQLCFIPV

CYP1A2, sequence (P05177 whole entry): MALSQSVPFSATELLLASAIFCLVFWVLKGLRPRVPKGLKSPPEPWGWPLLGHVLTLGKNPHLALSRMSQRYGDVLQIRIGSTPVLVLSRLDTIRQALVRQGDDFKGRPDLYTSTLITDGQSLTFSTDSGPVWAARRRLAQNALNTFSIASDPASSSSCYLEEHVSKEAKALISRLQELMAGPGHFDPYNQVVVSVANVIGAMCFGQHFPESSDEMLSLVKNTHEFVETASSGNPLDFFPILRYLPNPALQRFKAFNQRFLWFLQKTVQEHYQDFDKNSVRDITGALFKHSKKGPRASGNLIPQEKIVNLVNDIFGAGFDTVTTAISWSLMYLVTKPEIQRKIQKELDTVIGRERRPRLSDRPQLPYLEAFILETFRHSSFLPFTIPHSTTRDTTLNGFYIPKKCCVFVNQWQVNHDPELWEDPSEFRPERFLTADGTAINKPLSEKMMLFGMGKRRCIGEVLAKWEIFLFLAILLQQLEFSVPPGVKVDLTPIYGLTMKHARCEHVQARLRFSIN

Row | SMILES | IC50 (CYP1A2) [µM] | IC50 (CYP2C19) [µM]
1 | CC1(C)NC(=O)N(c2ccc(Oc3cccc(OC(F)(F)F)c3)nc2N)C1=O [Example 9, 3-[2-amino-6-[3-(trifluoromethoxy)phenoxy]-3-pyridyl]-5,5-dimethyl-imidazolidine-2,4-dione] | > 50 | 21
2 | Cc1ccc(Oc2ccc(N3C(=O)NC(C)(C)C3=O)c(N)n2)c2c1OCC21CC1 [Example 1, 3-[2-amino-6-(7-methylspiro[2H-benzofuran-3,1′-cyclopropane]-4-yl)oxy-3-pyridyl]-5,5-dimethyl-imidazolidine-2,4-dione] | > 50 | > 50
3 | COc1nc(Oc2ccc(C)c3c2C2(CC2)CO3)ccc1N1C(=O)NC(C)(C)C1=O [Reference Example 2, reference compound] | > 50 | 1.1
